For 43 compounds, IC50 results are on record in patent US20180298010A1, “PRMT5 INHIBITORS AND USES THEREOF” (Epizyme, Inc., priority 2012, published 2018).

For this experiment, the target named is T1, PRMT5/MEP50 (Homo sapiens, UniProt O14744).
T1 construct: Flag-PRMT5; 6His-MEP50
T1 sequence (O14744 with tags, fused parts or gaps): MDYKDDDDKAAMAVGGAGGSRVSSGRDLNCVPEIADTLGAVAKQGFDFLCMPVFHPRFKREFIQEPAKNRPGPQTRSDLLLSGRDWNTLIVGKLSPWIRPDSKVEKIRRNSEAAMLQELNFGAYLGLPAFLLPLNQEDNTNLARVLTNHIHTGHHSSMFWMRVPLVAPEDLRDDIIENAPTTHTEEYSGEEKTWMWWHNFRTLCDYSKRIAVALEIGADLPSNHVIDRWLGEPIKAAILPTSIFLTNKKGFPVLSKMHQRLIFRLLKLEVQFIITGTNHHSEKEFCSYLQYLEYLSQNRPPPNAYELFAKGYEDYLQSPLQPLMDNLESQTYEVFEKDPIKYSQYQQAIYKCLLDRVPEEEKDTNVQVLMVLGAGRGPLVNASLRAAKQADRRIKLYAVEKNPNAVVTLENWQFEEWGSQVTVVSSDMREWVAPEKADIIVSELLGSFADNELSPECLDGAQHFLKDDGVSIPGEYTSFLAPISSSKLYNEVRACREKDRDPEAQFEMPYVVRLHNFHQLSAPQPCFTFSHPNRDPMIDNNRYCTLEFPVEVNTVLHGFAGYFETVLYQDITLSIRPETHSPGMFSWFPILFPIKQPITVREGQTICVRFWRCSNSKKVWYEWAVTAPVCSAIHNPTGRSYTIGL
T1 sequence (Q9BQA1 with tags, fused parts or gaps partner): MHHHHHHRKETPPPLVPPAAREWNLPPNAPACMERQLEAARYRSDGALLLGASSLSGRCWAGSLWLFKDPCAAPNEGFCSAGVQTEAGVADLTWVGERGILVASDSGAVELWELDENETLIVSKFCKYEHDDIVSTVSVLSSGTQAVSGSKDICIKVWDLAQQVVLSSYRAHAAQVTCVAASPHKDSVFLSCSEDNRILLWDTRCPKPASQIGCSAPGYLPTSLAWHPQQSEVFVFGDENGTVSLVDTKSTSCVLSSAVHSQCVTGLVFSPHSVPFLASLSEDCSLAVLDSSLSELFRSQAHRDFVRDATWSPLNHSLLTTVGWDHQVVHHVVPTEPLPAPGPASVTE
Description: PRMT5 Biochemical Assay (PRMT5/MEP50 enzyme assay on peptide substrate, 3H-SAM Flashplate). The source says: General Materials. S-adenosylmethionine (SAM), S-adenosylhomocysteine (SAH), bicine, KCl, Tween20, dimethylsulfoxide (DMSO), bovine skin gelatin (BSG), and Tris(2-carboxyethyl)phosphine hydrochloride solution (TCEP) were purchased from Sigma-Aldrich at the highest level of purity possible. ^3H-SAM was purchase from American Radiolabeled Chemicals with a specific activity of 80 Ci/mmol. 384-well streptavidin Flashplates were purchased from PerkinElmer.
Substrates. Peptide representative of human histone H4 residues 1-15 was synthesized with a C-terminal linker-affinity tag motif and a C-terminal amide cap by 21st Century Biochemicals. The peptide was high high-perfomance liquid chromatography (HPLC) purified to greater than 95% purity and confirmed by liquid chromatography mass spectrometry (LC-MS). The sequence was Ac-[…][K-Biot]-amide (SEQ ID NO.:3).
Molecular Biology: Full-length human PRMT5 (NM_006109.3) transcript variant 1 clone was amplified from a fetal brain cDNA library, incorporating flanking 5′ sequence encoding a FLAG tag ([…]) (SEQ ID NO.:4) fused directly to Ala 2 of PRMT5. Full-length human MEP50 (NM_024102) clone was amplified from a human testis cDNA library incorporating a 5′ sequence encoding a 6-histidine tag (MHHHHHH) (SEQ ID NO.:5) fused directly to Arg 2 of MEP50. The amplified genes were sublconed into pENTR/D/TEV (Life Technologies) and subsequently transferred by Gateway™ attL×attR recombination to pDEST8 baculvirus expression vector (Life Technologies).
Protein Expression. Recombinant baculovirus and Baculovirus-Infected Insect Cells (BIIC) were generated according to Bac-to-Bac kit instructions (Life Technologies) and Wasilko, 2006, respectively. Protein over-expression was accomplished by infecting exponentially growing Spodoptera frugiperda (SF9) cell culture at 1.2×10^6cell/ml with a 5000 fold dilution of BIIC stock. Infections were carried out at 27° C. for 72 hours, harvested by centrifugation, and stored at −80° C. for purification.
Protein Purification. […] Flag-PRMT5/6His-MeP50 was eluted with 300 mM Imidazole in the same buffer. The purity of recovered protein was 87%. Reference: Wasilko, D. J. and S. E. Lee: “TIPS: titerless infected-cells preservation and scale-up” Bioprocess J., 5 (2006), pp. 29-32.
General Procedure for PRMT5/MEP50 Enzyme Assays on Peptide Substrates. The assays were all performed in a buffer consisting of 20 mM Bicine (pH=7.6), 1 mM TCEP, 0.005% BSG, and 0.002% Tween20, prepared on the day of use. Compounds in 100% DMSO (1 ul) were spotted into a polypropylene 384-well V-bottom plates (Greiner) using a Platemate Plus outfitted with a 384-channel head (Thermo Scientific). DMSO (1 ul) was added to Columns 11, 12, 23, 24, rows A-H for the maximum signal control and 1 ul of SAH, a known product and inhibitor of PRMT5/MEP50, was added to columns 11, 12, 23, 24, rows I-P for the minimum signal control. A cocktail (40 ul) containing the PRMT5/MEP50 enzyme and the peptide was added by Multidrop Combi (Thermo-Fisher). The compounds were allowed to incubate with PRMT5/MEP50 for 30 min at 25 degrees Celsius, then a cocktail (10 ul) containing ^3H-SAM was added to initiate the reaction (final volume=51 ul). The final concentrations of the components were as follows: PRMT5/MEP50 was 4 nM, ^3H-SAM was 75 nM, peptide was 40 nM, SAH in the minimum signal control wells was 100 uM, and the DMSO concentration was […]. The assays were stopped by the addition of non-radioactive SAM (10 ul) to a final concentration of 600 uM, which dilutes the ^3H-SAM to a level where its incorporation into the peptide substrate is no longer detectable. 50 ul of the reaction in the 384-well polypropylene plate was then transferred to a 384-well Flashplate and the biotinylated peptides were allowed to bind to the streptavidin surface for at least 1 hour before being washed three times with 0.1% Tween20 in a Biotek ELx405 plate washer. […]
As for `Oc1ccc(-c2cccc(OCC(O)CN3CCc4ccccc4C3)c2)cc1F` (stereo not shown) [Compound 70], the IC50 (in general, the midpoint of a concentration-inhibition curve) fell in the range of 1000 to 10000 nM.

Turning to `COc1ccccc1-c1cccc(OCC(O)CN2CCc3ccccc3C2)c1` (stereo not shown) [Compound 71], the IC50 is 1000 to 10000 nM.

On to `OCc1cccc(-c2cccc(OCC(O)CN3CCc4ccccc4C3)c2)c1` (stereo not shown) [Compound 72, 1-(3,4-dihydroisoquinolin-2(1H)-yl)-3-((3′-(hydroxymethyl)-[1,1′-biphenyl]-3-yl)oxy)propan-2-ol], for which the IC50 was 101 to 1000 nM.

With `OCc1ccc(-c2cccc(OCC(O)CN3CCc4ccccc4C3)c2)cc1` (stereo not shown) [Compound 73], the IC50 lay within 1000 to 10000 nM.

Regarding `COc1cccc(-c2cccc(OCC(O)CN3CCc4ccccc4C3)c2)c1` (stereo not shown) [Compound 74], the IC50 fell in the range of 101 to 1000 nM.

For the compound `COc1ccc(-c2cccc(OCC(O)CN3CCc4ccccc4C3)c2)cc1` (stereo not shown) [Compound 75, 1-(3,4-dihydroisoquinolin-2(1H)-yl)-3-((4′-methoxy-[1,1′-biphenyl]-3-yl)oxy)propan-2-ol], the IC50 was 101 to 1000 nM.

For the compound `OC(COc1cccc(-c2cncc(F)c2)c1)CN1CCc2ccccc2C1` (stereo not shown) [Compound 76], the IC50 fell in the range of 1000 to 10000 nM.

For `OC(COc1cccc(-c2ccc(F)cc2)c1)CN1CCc2ccccc2C1` (stereo not shown) [Compound 77], the IC50 lay in the range of 1000 to 10000 nM.

For the compound `Cc1ccc(-c2cccc(OCC(O)CN3CCc4ccccc4C3)c2)cn1` (stereo not shown) [Compound 78], the IC50 lay in the range of 1000 to 10000 nM.

As to `O=C(NC1CCOCC1)c1cccc(NCC(O)CN2CCc3ccccc3C2)c1` (stereo not shown) [Compound 79], the IC50 is 10000 to 40000 nM.

Regarding `CC1c2ccccc2CCN1CC(O)COc1cccc(-c2ccc3ncn(C)c3c2)c1` (stereo not shown) [Compound 80], the IC50 lay in the range of 101 to 1000 nM.

As for `CC(C)n1cnc2ccc(-c3cccc(OCC(O)CN4CCc5ccccc5C4)c3)cc21` (stereo not shown) [Compound 81], the IC50 lay within 101 to 1000 nM.

For `COc1ccc(Cn2cnc3ccc(-c4cccc(OCC(O)CN5CCc6ccccc6C5)c4)cc32)cc1` (stereo not shown) [Compound 82, 1-(3,4-dihydroisoquinolin-2(1H)-yl)-3-(3-(1-(4-methoxybenzyl)-1H-benzo[d]imidazol-6-yl)phenoxy)propan-2-ol], the IC50 lay in the range of 101 to 1000 nM.

In the case of `OC(COc1cccc(-c2ccc3nc[nH]c3c2)c1)CN1CCc2ccccc2C1` (stereo not shown) [Compound 83], the IC50 lay within 101 to 1000 nM.

In the case of `OC(COc1cccc(-c2ccc3c(c2)OCCO3)c1)CN1CCc2ccccc2C1` (stereo not shown) [Compound 85, 1-(3-(2,3-dihydrobenzo[b][1,4]dioxin-6-yl)phenoxy)-3-(3,4-dihydroisoquinolin-2(1H)-yl)propan-2-ol], the IC50 is 101 to 1000 nM.

On to `OC(COc1cccc(-c2cccc3c2oc2ccccc23)c1)CN1CCc2ccccc2C1` (stereo not shown) [Compound 86, 1-(3-(dibenzo[b,d]furan-4-yl)phenoxy)-3-(3,4-dihydroisoquinolin-2(1H)-yl)propan-2-ol], for which the IC50 is 101 to 1000 nM.

As to `OC(COc1cccc(-c2cccc(C(F)(F)F)c2)c1)CN1CCc2ccccc2C1` (stereo not shown) [Compound 87], the IC50 was in the range of 1000 to 10000 nM.

Consider `COc1ccc(-c2cccc(OCC(O)CN3CCc4ccccc4C3)c2)c(Cl)c1` (stereo not shown) [Compound 88], for which the IC50 lay in the range of 101 to 1000 nM.

Turning to `OC(COc1cccc(-c2cnc3ccccc3c2)c1)CN1CCc2ccccc2C1` (stereo not shown) [Compound 89, 1-(3,4-dihydroisoquinolin-2(1H)-yl)-3-(3-(quinolin-3-yl)phenoxy)propan-2-ol], the IC50 lay within 101 to 1000 nM.

For `COc1ccc(-c2cccc(OCC(O)CN3CCc4ccccc4C3)c2)c(C)c1` (stereo not shown) [Compound 90], the IC50 fell in the range of 101 to 1000 nM.

With `OC(COc1cccc(-c2cccc(Cl)c2)c1)CN1CCc2ccccc2C1` (stereo not shown) [Compound 91], the IC50 is 1000 to 10000 nM.

`OC(COc1cccc(-c2ccccc2Cl)c1)CN1CCc2ccccc2C1` (stereo not shown) [Compound 92]: the IC50 fell in the range of 101 to 1000 nM.

Take `N#Cc1ccccc1-c1cccc(OCC(O)CN2CCc3ccccc3C2)c1` (stereo not shown) [Compound 93]: the IC50 is 101 to 1000 nM.

Turning to `N#Cc1ccc(-c2cccc(OCC(O)CN3CCc4ccccc4C3)c2)cc1` (stereo not shown) [Compound 94], the IC50 is 101 to 1000 nM.

Take `Oc1cccc(-c2cccc(OCC(O)CN3CCc4ccccc4C3)c2)c1` (stereo not shown) [Compound 95]: the IC50 lay within 101 to 1000 nM.

With `Oc1ccc(-c2cccc(OCC(O)CN3CCc4ccccc4C3)c2)cc1` (stereo not shown) [Compound 96], the IC50 was in the range of 1000 to 10000 nM.

For `OC(COc1cccc(-c2ccncc2)c1)CN1CCc2ccccc2C1` (stereo not shown) [Compound 97], the IC50 lay in the range of 1000 to 10000 nM.

Take `OC(COc1cccc(-c2ccccn2)c1)CN1CCc2ccccc2C1` (stereo not shown) [Compound 98]: the IC50 fell in the range of 1000 to 10000 nM.

With `CN(CC(O)CN1CCc2ccccc2C1)c1cccc(C(=O)NC2CCOCC2)c1` (stereo not shown) [Compound 99], the IC50 was in the range of 10000 to 40000 nM.

On to `COc1cccc2c1CN(CC(O)COc1cccc(-c3ccc4ncn(C)c4c3)c1)CC2` (stereo not shown) [Compound 100], for which the IC50 lay in the range of 1000 to 10000 nM.

As to `CC1CN(CC(O)COc2cccc(-c3ccc4ncn(C)c4c3)c2)Cc2ccccc21` (stereo not shown) [Compound 101], the IC50 was 1000 to 10000 nM.

Regarding `OC(COc1cccc(-c2ccc3ncn(C4CCOCC4)c3c2)c1)CN1CCc2ccccc2C1` (stereo not shown) [Compound 103, 1-(3,4-dihydroisoquinolin-2(1H)-yl)-3-(3-(1-(tetrahydro-2H-pyran-4-yl)-1H-benzo[d]imidazol-6-yl)phenoxy)propan-2-ol], the IC50 lay in the range of 101 to 1000 nM.

In the case of `OC(COc1cccc(-c2ccc3ncn(-c4ccccc4)c3c2)c1)CN1CCc2ccccc2C1` (stereo not shown) [Compound 104, 1-(3,4-dihydroisoquinolin-2(1H)-yl)-3-(3-(1-phenyl-1H-benzo[d]imidazol-6-yl)phenoxy)propan-2-ol], the IC50 was 101 to 1000 nM.

On to `OC(COc1cccc(-c2ccc3[nH]ncc3c2)c1)CN1CCc2ccccc2C1` (stereo not shown) [Compound 107], for which the IC50 was 101 to 1000 nM.

For the compound `O=c1[nH]c2ccc(-c3cccc(OCC(O)CN4CCc5ccccc5C4)c3)cc2[nH]1` (stereo not shown) [Compound 109, 5-(3-(3-(3,4-dihydroisoquinolin-2(1H)-yl)-2-hydroxypropoxy)phenyl)-1H-benzo[d]imidazol-2(3H)-one], the IC50 is 101 to 1000 nM.

With `COc1cc(Cl)cc(-c2cccc(OCC(O)CN3CCc4ccccc4C3)c2)c1` (stereo not shown) [Compound 110], the IC50 was 101 to 1000 nM.

`N#CCc1cccc(-c2cccc(OCC(O)CN3CCc4ccccc4C3)c2)c1` (stereo not shown) [Compound 111]: the IC50 lay in the range of 101 to 1000 nM.

Take `Cc1ccncc1-c1cccc(OCC(O)CN2CCc3ccccc3C2)c1` (stereo not shown) [Compound 113, 1-(3,4-dihydroisoquinolin-2(1H)-yl)-3-(3-(4-methylpyridin-3-yl)phenoxy)propan-2-ol]: the IC50 fell in the range of 101 to 1000 nM.

Regarding `Cn1cc2ccc(-c3cccc(OCC(O)CN4CCc5ccccc5C4)c3)cc2n1` (stereo not shown) [Compound 114], the IC50 was 101 to 1000 nM.

As to `Cn1cc2cc(-c3cccc(OCC(O)CN4CCc5ccccc5C4)c3)ccc2n1` (stereo not shown) [Compound 115], the IC50 lay within 1000 to 10000 nM.

For the compound `Cn1cnc2ccc(-c3cccc(NCC(O)CN4CCc5ccccc5C4)n3)cc21` (stereo not shown) [Compound 117, 1-(3,4-Dihydroisoquinolin-2(1H)-yl)-3-((6-(1-methyl-1H-benzo[d]imidazol-6-yl)pyridin-2-yl)amino)propan-2-ol], the IC50 was 101 to 1000 nM.

Regarding `Cn1cnc2ccc(-c3ccnc(NCC(O)CN4CCc5ccccc5C4)n3)cc21` (stereo not shown) [Compound 119], the half-maximal inhibitory concentration (IC50) fell in the range of 101 to 1000 nM.

On to `Cn1cnc2ccc(-c3nccc(NCC(O)CN4CCc5ccccc5C4)n3)cc21` (stereo not shown) [Compound 120, 1-(3,4-dihydroisoquinolin-2(1H)-yl)-3-((2-(1-methyl-1H-benzo[d]imidazol-6-yl)pyrimidin-4-yl)amino)propan-2-ol], for which the IC50 lay in the range of 1000 to 10000 nM.
